# Reference: patent US9682140B2, “Ezrin-derived peptides and pharmaceutical compositions thereof” (priority 2016, dated 2017)
# Assays:
# [1] = tested on: encephalomyocarditis virus; assay: Antiviral (interferon-inducing) activity in culture of PLC/PRF/5 (Alexander) human hepatoma cell line; assay type: cell-based, encephalomyocarditis virus strain Columbia SK-Col-SK; conditions: for Antiviral efficacy (minimal compound concentration protecting 50% of the cells from death) / Titre of induced interferon (inverse to the maximal dilution protecting 50% of the cells): PLC/PRF/5 (Alexander) human hepatoma cells, 100 LD50 of encephalomyocarditis virus
# Method: (§1) In this methodology in vitro, we pretreated different types of cells with the studied peptides, and then the cells were infected with a dose of 100 LD50 of encephalomyocarditis virus. 24 hours after the infection the cytopathic effect of the virus was assessed in order to evaluate protective activity of the tested compound if the latter has the ability to bring the cells to a state, resistant to the virus, which is deadly for cells.
# (§2) The lower is the concentration which protects 50% of cells from death due to the infection at a dose of 100 LD50 of encephalomyocarditis virus, the higher is antiviral (interferon-inducing) activity of the tested compound.
# PLC/PRF/5 (Alexander) human hepatoma cell line was obtained from Research Institute of Virology named after Ivanovskiy (Moscow). Complete medium for cells culturing was prepared on the basis of MEM Eagle medium supplemented with 10% fetal calf serum (FCS), L-glutamine (300 μg/ml), and penicillin (100 U/ml).
# (§3) The peptides were dissolved in distilled water, and then sterilized by passing through filters with pore size 0.2 μm to obtain the stock solutions of 1-2 mg/ml. On day 0, cells were seeded in the wells of 96-well plate in complete culture medium with cell density of 200 thousands of cells in 1 ml. On day 1, serial dilutions of each tested sample were prepared (24 serial dilutions in increments of 2) in triplets in the wells of the 96-well plate. On day 3, all the cultures were infected with a dose of 100 TCID50/ml of encephalomyocarditis virus strain “Columbia SK-Col-SK”. Finally, on day 4, cytopathic effect of the virus was assessed by using Leitz inverted microscope in the presence of different concentrations of the tested peptide or in the cultures without peptide (control).
# (§4) Antiviral effect of the drug product was assessed based on minimal concentration thereof protecting 50% of the cells from death caused by encephalomyocarditis virus at a dose of 100 TCID50/ml. Interferon titre (U/ml) was calculated as a value, inverse to the maximal dilution of the drug product, which protected 50% of the cells from death caused by encephalomyocarditis virus at a dose of 100 TCID50/ml.
# [2] = tested on: encephalomyocarditis virus; assay: Antiviral (interferon-inducing) activity in culture of HELA human cervical carcinoma cell line; assay type: cell-based; conditions: 100 LD50 of encephalomyocarditis virus
# Method: as §1, §2, §3, §4
# HELA human cervical carcinoma cell line was obtained from Research Institute of Virology named after Ivanovskiy (Moscow). Complete medium for cells culturing, peptides and compositions thereof, as well as assessment method for their antiviral (interferon-inducing) activity were the same as described in the Example 5.
# [3] = tested on: encephalomyocarditis virus; assay: Antiviral (interferon-inducing) activity in culture of Girardi Heart human epithelial cell line; assay type: cell-based; conditions: for Antiviral efficacy (minimal compound concentration protecting 50% of the cells from death) / Titre of induced interferon (inverse to the maximal dilution protecting 50% of the cells): Girardi Heart epithelial cells, 100 LD50 of encephalomyocarditis virus
# Method: as §1, §2, §3, §4
# The culture of Girardi Heart human epithelial cell line was obtained from Research Institute of Virology named after Ivanovskiy (Moscow). Complete medium for cells culturing, peptides and compositions thereof, as well as assessment method for their antiviral (interferon-inducing) activity were the same as described in the Example 5.
# [4] = tested on: MAPK/ERK signaling pathway; assay: Activation of MAPK/ERK signaling pathway in BALB/c mouse fibroblasts (immune blotting of phospho-p44/42 MAPK); assay type: cell-based
# Method: Peptide […] (SEQ ID No: 1) was obtained as described in Example 1, BALB/c mouse fibroblast were purchased from American Type Culture Collection and propagated in a complete medium consisting of high glucose DMEM supplemented with 10% fetal calf serum, 1 mM sodium pyruvate, 1:50 MEM non-essential amino acids, 2 mM L-glutamine, 10 μg/ml gentamicin and 50 μM β-mercaptoethanol. Cells were grown in 10 cm culture dishes at 5% CO2 and 37° C. Cell passages were made at the 50-60% confluency. For cell detachment, 0.05% trypsin/EDTA was used with following centrifugation (470×g, 15 min) in 10-fold volume of washing medium containing 10% FCS to quench trypsin. Supernatant was discarded and the cell pellet was suspended in 10 ml of complete culture medium, then cell numbers were counted using hemocytometer before cells were used for experiments.
# Fibroblasts were cultured in 8-well culture plates, the examined peptide or cytokine TGF-β1 (positive control) solution, or equivalent volume of culture medium (negative control) were added into respective triplicate cultures. Cells were incubated in presence of the peptide […] SEQ ID No: 1 (10 μg/ml) or TGF-β1, or without any effector compound during 1 or 6 hours at 5% C02 and 37° C. At the time points indicated, cell were harvested, washed twice with PBS and lyzed using the cell extraction buffer in the presence of protease inhibitors during 30 min at 4° C. Extracts were cleared by centrifugation (14,000×g, 10 min, 4° C.). Protein concentration was measured using protein assay reagent (Pierce, 23225). Appropriate dilutions of extracts ([…] protein per a track) were then fractionated in 8% SDS-PAGE and then transferred onto PVDF-membrane (Amersham) for immune blotting. Targeted proteins were detected using antibodies specific to phospho-p44/42 MAPK (Cell Signaling, 4370) and GAPDH (Abcam ab8245). Protein bands were visualized and then measured their intensities using ImageJ soft-ware. Data were expressed as a value (pixels per a band) of ERK1, ERK2 or phospho-ERK1 and phospho-ERK2 normalized to a value of respective GAPDH-bands. Mean values+SD were calculated using the data of 3 independent runs.
# [5] = 1 hour after activation, peptide 10 μg/ml, TGF-β1 5 ng/ml, negative control 0.1+0.002
# [6] = 1 hour after activation, peptide 10 μg/ml, TGF-β1 5 ng/ml, negative control 0.4+0.01
# [7] = 6 hour time point, non-activated cultures 0.1+0.007
# [8] = 6 hours after activation, negative control 0.1+0.01
substance,measurement,setting,value
NH2_Arg-Glu-Thr-Val-Glu-Arg-Glu-Lys-Glu_COOH (H-RETVEREKE-OH) [HP6-14],Antiviral efficacy (minimal compound concentration protecting 50% of the cells from death),[1],0.78 µg/mL
same,Titre of induced interferon (inverse to the maximal dilution protecting 50% of the cells),[1],1280 U/ml
same,Antiviral efficacy (minimal compound concentration protecting 50% of the cells from death),[2],0.49 µg/mL
same,Titre of induced interferon (inverse to the maximal dilution protecting 50% of the cells),[2],2048 U/ml
same,Antiviral efficacy (minimal compound concentration protecting 50% of the cells from death),[3],0.006 µg/mL
same,Titre of induced interferon (inverse to the maximal dilution protecting 50% of the cells),[3],163 840 U/ml
NH2_Gly-Glu-Lys-Lys-Arg-Arg-Glu-Thr-Val-Glu-Arg-Glu-Gly-Gly_COOH (H-GEKKRRETVEREGG-OH) [HP-V2],Antiviral efficacy (minimal compound concentration protecting 50% of the cells from death),[1],0.78 µg/mL
same,Titre of induced interferon (inverse to the maximal dilution protecting 50% of the cells),[1],1280 U/ml
same,immunostimulatory activity compared with the activity of HEP-1 peptide,"[1]; Table 1, PLC/PRF/5 cells",4 times
same,Antiviral efficacy (minimal compound concentration protecting 50% of the cells from death),[2],7.8 µg/mL
same,Titre of induced interferon (inverse to the maximal dilution protecting 50% of the cells),[2],128 U/ml
same,Antiviral efficacy (minimal compound concentration protecting 50% of the cells from death),[3],0.0015 µg/mL
same,Titre of induced interferon (inverse to the maximal dilution protecting 50% of the cells),[3],655 360 U/ml
same,immunostimulatory activity compared with the activity of HEP-1 peptide,"[3]; Table 3, Girardi Heart cells",the same
same,phospho-ERK1 normalized value (band intensity normalized to GAPDH),[4]; [5],0.4+0.02
same,phospho-ERK2 normalized value (band intensity normalized to GAPDH),[4]; [6],1.3+0.05
same,phospho-ERK2 normalized value (band intensity normalized to GAPDH),[4]; [7],0.1+0.01
same,phospho-ERK1 normalized value (band intensity normalized to GAPDH),[4]; [8],0.1+0.006
NH2_Thr-Glu-Lys-Lys-Arg COOH (H-TEKKR-OH) [HP1-5],Antiviral efficacy (minimal compound concentration protecting 50% of the cells from death),[1],1.6 µg/mL
same,Titre of induced interferon (inverse to the maximal dilution protecting 50% of the cells),[1],640 U/ml
same,Antiviral efficacy (minimal compound concentration protecting 50% of the cells from death),[2],0.49 µg/mL
same,Titre of induced interferon (inverse to the maximal dilution protecting 50% of the cells),[2],2048 U/ml
same,Antiviral efficacy (minimal compound concentration protecting 50% of the cells from death),[3],0.0015 µg/mL
same,Titre of induced interferon (inverse to the maximal dilution protecting 50% of the cells),[3],655 360 U/ml
NH2_Thr-Glu-Lys-Lys-Arg-Arg-Glu-Thr-Val-Glu-Arg-Glu-Lys-Glu_COOH (H-TEKKRRETVEREKE-OH) [HEP-1],Antiviral efficacy (minimal compound concentration protecting 50% of the cells from death),[1],3.0 µg/mL
same,Titre of induced interferon (inverse to the maximal dilution protecting 50% of the cells),[1],320 U/ml
same,Antiviral efficacy (minimal compound concentration protecting 50% of the cells from death),[2],3.9 µg/mL
same,Titre of induced interferon (inverse to the maximal dilution protecting 50% of the cells),[2],256 U/ml
same,Antiviral efficacy (minimal compound concentration protecting 50% of the cells from death),[3],0.0015 µg/mL
same,Titre of induced interferon (inverse to the maximal dilution protecting 50% of the cells),[3],655 360 U/ml
TGF-β1: cytokine TGF-β1 (positive control),phospho-ERK1 normalized value (band intensity normalized to GAPDH),[4]; [5],0.5+0.02
same,phospho-ERK2 normalized value (band intensity normalized to GAPDH),[4]; [6],1.9+0.1
same,phospho-ERK2 normalized value (band intensity normalized to GAPDH),[4]; [7],0.35+0.02
same,phospho-ERK1 normalized value (band intensity normalized to GAPDH),[4]; [8],0.3+0.02
